The nature of data set [1]: Stability against forced oxidation at 120° C. in an oily food matrix (refined oil, Rancimat).
Method: This was done by measuring the remaining amount of each of the compounds when these were subjected to forced oxidation at 120° C. Oxidation was done by passing a dry air current (˜20 I/h) through an aliquot of the sample (4 ml) placed in a reactor heated to 120° C. using a Metrohm-Herisau A. G Rancimat apparatus.
The solutions of all the compounds were prepared in refined oil. A total of 5 mg of II were dissolved in 5 g of refined oil, and finally 0.5 g of this solution were dissolved in. 5 g of refined oil. Similarly, solutions III and VIII were prepared in refined oil. Aliquots of 0.3 ml were collected at different times for each solution and were stored at −20° C. […] After introducing the sample, 6 ml of hexane, 6 ml of hexane/ethyl acetate (9:1) and 10 ml of methanol were passed through it, and then the methanolic fraction was concentrated to 1 ml volume. […] Once again, the methanolic phase was concentrated to 1 ml volume for analysis.
Data set [2] is described as follows: Absorption of hydroxytyrosol administered orally in human volunteers. The format is in vivo. The settings on record: oral. The procedure: Pure hydroxytyrosol was obtained from olive leaves using standard extraction procedures compatible with the consumption of food products.
A 2.5 mg dose of hydroxytyrosol was administered per kg weight to 5 fasting healthy volunteers aged from 22–30 years who had not taken olive oil in their diet for at least two days before the study. Hydroxytyrosol dissolved in water was administered orally and afterwards blood samples were obtained at 0, 10, 20, 30, 60, 120 minutes. The plasma level of hydroxytyrosol and derived metabolites were determined by gas chromatography-mass spectometry using anthracene and napthol as internal standards.

Data set [3] in a line: Absorption of hydroxytyrosol and derivatives administered orally in mice (hydroxytyrosol in plasma). The settings on record: oral, oily solution, equivalent amounts (10 mg II, 13 mg III, 70 mg IX). From the text:
Plasma was isolated from each blood sample by extraction with ethyl acetate and analysed by gas chromatography-mass spectometry.

Consider `CCCCCCCCCCCCCCCCCCOc1ccc(CCO)cc1O` [Compound VII, 2-(4-stearyloxy-3-hydroxyphenyl) ethanol], for which, in data set [1] (120° C., dry air current, after 10 hours, RP-HPLC), the “remaining amount of compound during forced oxidation” value was determined as 50%.

`OCCc1ccc(O)c(O)c1` [II, 2-(3,4-dihydroxyphenyl) ethanol]: the “degradation state during forced oxidation” value in data set [1] (120° C., after 10 hours) is “completely degraded”. Also, in data set [2], the “time bioavailable after administration” value is “at least 30 minutes”. In addition, in data set [2] (2.5 mg per kg weight in water), the “time of return of hydroxytyrosol plasma level to values similar to initial ones” value is 30 min. Moreover, the “time of maximum plasma level of hydroxytyrosol after administration” value in data set [2] (2.5 mg per kg weight in water, fasting) came to 10 min.

`CC(=O)OCCc1ccc(O)c(O)c1` [III, 2-(3,4-dihydroxyphenyl) ethyl acetate]: the “degradation state during forced oxidation” value in data set [1] (120° C., after 10 hours) is on record as “completely degraded”. For the same compound, in data set [1] (forced oxidation at 120° C.), the “stability against oxidation compared with hydroxytyrosol” value is “takes longer to degrade than hydroxytyrosol (II)”. In addition, the “Hydroxytyrosol in plasma, 15 min.” value in data set [3] (15 min) was determined as 0.68 mg/L. Further, the “Hydroxytyrosol in plasma, 60 min.” value in data set [3] (60 min) came to 0.06 mg/L.

For the origin of these results see patent US7098246B2, “Natural compounds and their derivatives for the prevention and treatment of cardiovascular, hepatic and renal diseases and for cosmetic applications” (Puleva Biotech, S.A., priority 2002, dated 2006).
